Earlier results in Sander's compilation of Henry's law constants.

Experiment: Henry solubility constant Hcp at 298.15 K (mol/(m3 Pa))
Details: cited value
[1] = reference: Dohnal et al. (2006)
[2] = reference: Burkholder et al. (2015)
[3] = reference: Burkholder et al. (2019)
[4] = reference: Fogg and Sangster (2003)
[5] = reference: Sander et al. (2011)
[6] = reference: Wania and Dugani (2003)
[7] = reference: Murphy et al. (1983b)

C=CCCCCCCC [1-nonene]
Henry solubility constant Hcp (reference: Brockbank (2013)): 1.1e-05

C#CCCCCCCC [1-nonyne]
Henry solubility constant Hcp (reference: Brockbank (2013)): 8.5e-05

CCCCCCCCN [1-octanamine]
Henry solubility constant Hcp (reference: Brockbank (2013)): 0.22

CCCCCCCCO [1-octanol]
Henry solubility constant Hcp (reference: Brockbank (2013)): 0.34

C=CCCCCCC [1-octene]
Henry solubility constant Hcp (reference: Brockbank (2013)): 1.6e-05

C#CCCCCCC [1-octyne]
Henry solubility constant Hcp (reference: Brockbank (2013)): 0.00012

C=CCCCCCCCCCCCCC [1-pentadecene]
Henry solubility constant Hcp (reference: Brockbank (2013)): 2.2e-06

CCCCCN [1-pentanamine]
Henry solubility constant Hcp (reference: Brockbank (2013)): 0.43

CCCCCO [1-pentanol]
Henry solubility constant Hcp (reference: Brockbank (2013)): 0.86 | Henry solubility constant Hcp [1]: 1

C=CCCC [1-pentene]
Henry solubility constant Hcp (reference: Brockbank (2013)): 3e-05

CC(=O)c1ccccc1 [1-phenylethanone]
Henry solubility constant Hcp (reference: Brockbank (2013)): 1.1

CCCO [1-propanol]
Henry solubility constant Hcp (reference: Brockbank (2013)): 1.5 | Henry solubility constant Hcp [2]: 1.4 | Henry solubility constant Hcp [3]: 1.4 | Henry solubility constant Hcp [1]: 1.4 | Henry solubility constant Hcp [4]: 1.4 | Henry solubility constant Hcp (reference: Sander et al. (2006)): 1.3 | Henry solubility constant Hcp [5]: 1.4

C=CCCCCCCCCCCCC [1-tetradecene]
Henry solubility constant Hcp (reference: Brockbank (2013)): 3e-06

CCCCCCCCCCCO [1-undecanol]
Henry solubility constant Hcp (reference: Brockbank (2013)): 0.14

OC[C@@H](O)[C@@H](O)CO [2(R),3(S)-1,2,3,4-butanetetrol]
Henry solubility constant Hcp [2]: 1.1e+10 | Henry solubility constant Hcp [3]: 1.1e+10

Brc1cc(Br)c(Oc2cc(Br)c(Br)cc2Br)cc1Br [2,2',4,4',5,5'-hexabromodiphenyl ether]
Henry solubility constant Hcp [6]: 2.9

Clc1cc(Cl)c(-c2cc(Cl)c(Cl)cc2Cl)cc1Cl [2,2',4,4',5,5'-hexachlorobiphenyl]
Henry solubility constant Hcp [7]: 0.028

Brc1ccc(Oc2cc(Br)c(Br)cc2Br)c(Br)c1 [2,2',4,4',5-pentabromodiphenyl ether]
Henry solubility constant Hcp [6]: 1.9

Brc1ccc(Oc2c(Br)cc(Br)cc2Br)c(Br)c1 [2,2',4,4',6-pentabromodiphenyl ether]
Henry solubility constant Hcp [6]: 2.6

Brc1ccc(Oc2ccc(Br)cc2Br)c(Br)c1 [2,2',4,4'-tetrabromodiphenyl ether]
Henry solubility constant Hcp [6]: 0.9

Clc1ccc(Cl)c(-c2cc(Cl)ccc2Cl)c1 [2,2',5,5'-tetrachlorobiphenyl]
Henry solubility constant Hcp [7]: 0.038

Clc1ccccc1-c1ccccc1Cl [2,2'-dichlorobiphenyl]
Henry solubility constant Hcp [7]: 0.045

OCC(F)(F)F [2,2,2-trifluoroethanol]
Henry solubility constant Hcp [2]: 0.47 | Henry solubility constant Hcp [3]: 0.47 | Henry solubility constant Hcp [5]: 0.47

CC(=O)OCC(F)(F)F [2,2,2-trifluoroethyl ethanoate]
Henry solubility constant Hcp [2]: 0.0055 | Henry solubility constant Hcp [3]: 0.0055 | Henry solubility constant Hcp [5]: 0.0055

O=COCC(F)(F)F [2,2,2-trifluoroethyl methanoate]
Henry solubility constant Hcp [2]: 0.0054 | Henry solubility constant Hcp [3]: 0.0054 | Henry solubility constant Hcp [5]: 0.0054

OCC(F)(F)C(F)(F)F [2,2,3,3,3-pentafluoro-1-propanol]
Henry solubility constant Hcp [2]: 0.14 | Henry solubility constant Hcp [3]: 0.14 | Henry solubility constant Hcp [5]: 0.14

OCC(F)(F)C(F)F [2,2,3,3-tetrafluoro-1-propanol]
Henry solubility constant Hcp [2]: 1.4 | Henry solubility constant Hcp [3]: 1.4 | Henry solubility constant Hcp [5]: 1.4

CC(C)CCC(C)(C)C [2,2,5-trimethylhexane]
Henry solubility constant Hcp (reference: Brockbank (2013)): 1.9e-06

COC(F)(F)C(Cl)Cl [2,2-dichloro-1,1-difluoro-1-methoxyethane]
Henry solubility constant Hcp [4]: 0.0029

OCC(Cl)Cl [2,2-dichloroethanol]
Henry solubility constant Hcp [2]: 0.37 | Henry solubility constant Hcp [3]: 0.37

OCC(F)F [2,2-difluoroethanol]
Henry solubility constant Hcp [2]: 0.93 | Henry solubility constant Hcp [3]: 0.93

CC(C)(C)CO [2,2-dimethyl-1-propanol]
Henry solubility constant Hcp (reference: Brockbank (2013)): 0.3

CCC(C)(C)C [2,2-dimethylbutane]
Henry solubility constant Hcp (reference: Brockbank (2013)): 5.7e-06

CC(C)C(C)C(C)C [2,3,4-trimethylpentane]
Henry solubility constant Hcp (reference: Brockbank (2013)): 3.3e-06

c1ccc2c(c1)Cc1ccccc1-2 [2,3-benzindene]
Henry solubility constant Hcp (reference: Brockbank (2013)): 0.13 | Henry solubility constant Hcp [4]: 0.11 | Henry solubility constant Hcp (reference: Goldstein (1982)): 0.084 | Henry solubility constant Hcp (reference: HSDB (2015)): 0.099 | Henry solubility constant Hcp (reference: McCarty (1980)): 0.047

CC(O)C(C)O (stereo not given) [2,3-butanediol]
Henry solubility constant Hcp [2]: 1100 | Henry solubility constant Hcp [3]: 1100

CC(C)C(C)C [2,3-dimethylbutane]
Henry solubility constant Hcp (reference: Brockbank (2013)): 8e-06

Cc1cc2ccccc2cc1C [2,3-dimethylnaphthalene]
Henry solubility constant Hcp (reference: Meylan and Howard (1991)): 0.011

Brc1ccc(Oc2ccc(Br)cc2Br)cc1 [2,4,4'-tribromodiphenyl ether]
Henry solubility constant Hcp [6]: 0.52

N#Cc1c(Cl)c(Cl)c(Cl)c(C#N)c1Cl [2,4,5,6-tetrachloro-1,3-dicyanobenzene]
Henry solubility constant Hcp (reference: MacBean (2012b)): 39
